Measured values published in patent publication US20220133847A1, “COMPOSITIONS AND METHODS FOR ALLEVIATING PAIN” (priority 2020, published 2022).
Ends that are not written are not given here.

How the values were obtained:
Cav3.3 = molecular target: T1, Cav3.3 (Mus musculus, UniProt E9Q7P2); assay: Western blot of Cav3.3 protein levels in whole trigeminal ganglia lysates after peptide injection; assay type: in vivo; settings: FRICT-ION mice, whole TG lysates, four hours post injection, normalized to actin
T1 construct: Western blot analysis of Cav3.3 protein levels from whole TG lysates was performed; from tissue; host or cells: mouse trigeminal ganglia (FRICT-ION model)
Protocol: Twelve male and female mice (8-10 weeks old, six mice per sex) were subject to the FRICT-ION model of trigeminal neuropathic pain. Three mice of each sex were administered TAT-C3P peptide (SEQ ID NO:1) and the remaining mice were administered TAT-C3D (SEQ ID NO:2) following the methods described above. Four hours post injection, mice were euthanized with pentobarbital (50 mg/kg) and both ipsilateral and contralateral trigeminal ganglia (TG) were removed. TG were washed immediately in PBS and stored at −80° C.
The TG for each of the four groups were pooled together (n=3) for protein extraction and homogenized using a pestle and 500 μL of 1×RIPA buffer (Thermo Fisher Scientific, Inc., Waltham, Mass.). Samples were put on a rocking shaker for two hours and then centrifuged, and supernatant removed to a new tube. Samples were assayed for total protein. […] Samples were then prepared for electrophoresis by mixing with 2× sample buffer and boiling for five minutes at 100° C. for denaturation.
Proteins were loaded on a 12% Tris-Glycine polyacrylamide gradient gel (Bio-Rad Laboratories, Inc., Hercules, Calif.) and transferred to a PVDF membrane (MilliporeSigma, Burlington, Mass.). […] Signal intensity was analyzed using ImageJ (Schneider et al., Nature Methods 9:671-675 (2012)) for comparisons.
Male and female mice were analyzed separately. […]

Cav3.3 channels = Cav3.3 channels (Homo sapiens, UniProt Q9P0X4); settings: cited from earlier work
[1] = Method: FIG. 5. […] Animals were sacrificed, and tissues were harvested four hours post-injection.
A His-tagging method was used to assess the brain-penetrance of peptide therapeutics (Westlund et al., 2021, Neurobiol Pain 10:100067). Briefly, a His-tagged TAT-C3P peptide with the sequence […] (SEQ ID NO: 3) was ordered from Genscript. Protein content was assessed with Western blots using standard methods. Briefly, the sample protein was denatured, followed by gel electrophoresis to separate proteins by molecular weight. An anti-His-tag monoclonal antibody (C-terminal A01857, GenScript) that binds to the His-tag conjugated to the TAT-C3P peptide or anti-β-actin antibody (ab8226, Abcam, Cambridge, United Kingdom) was applied to the electrophoresis membrane. After washing off the antibody, specific secondary antibodies were added which recognized and bound to the primary antibodies. The secondary antibody was visualized through immunofluorescence probe attached to the secondary antibody, allowing indirect detection, validation, and semi-quantitative assessment of the specific target protein.

[2] = in vivo
T-type Ca2+ channels = settings: patients; cited from earlier work

Chain of Cav3.3 channels (Q9P0X4 whole entry): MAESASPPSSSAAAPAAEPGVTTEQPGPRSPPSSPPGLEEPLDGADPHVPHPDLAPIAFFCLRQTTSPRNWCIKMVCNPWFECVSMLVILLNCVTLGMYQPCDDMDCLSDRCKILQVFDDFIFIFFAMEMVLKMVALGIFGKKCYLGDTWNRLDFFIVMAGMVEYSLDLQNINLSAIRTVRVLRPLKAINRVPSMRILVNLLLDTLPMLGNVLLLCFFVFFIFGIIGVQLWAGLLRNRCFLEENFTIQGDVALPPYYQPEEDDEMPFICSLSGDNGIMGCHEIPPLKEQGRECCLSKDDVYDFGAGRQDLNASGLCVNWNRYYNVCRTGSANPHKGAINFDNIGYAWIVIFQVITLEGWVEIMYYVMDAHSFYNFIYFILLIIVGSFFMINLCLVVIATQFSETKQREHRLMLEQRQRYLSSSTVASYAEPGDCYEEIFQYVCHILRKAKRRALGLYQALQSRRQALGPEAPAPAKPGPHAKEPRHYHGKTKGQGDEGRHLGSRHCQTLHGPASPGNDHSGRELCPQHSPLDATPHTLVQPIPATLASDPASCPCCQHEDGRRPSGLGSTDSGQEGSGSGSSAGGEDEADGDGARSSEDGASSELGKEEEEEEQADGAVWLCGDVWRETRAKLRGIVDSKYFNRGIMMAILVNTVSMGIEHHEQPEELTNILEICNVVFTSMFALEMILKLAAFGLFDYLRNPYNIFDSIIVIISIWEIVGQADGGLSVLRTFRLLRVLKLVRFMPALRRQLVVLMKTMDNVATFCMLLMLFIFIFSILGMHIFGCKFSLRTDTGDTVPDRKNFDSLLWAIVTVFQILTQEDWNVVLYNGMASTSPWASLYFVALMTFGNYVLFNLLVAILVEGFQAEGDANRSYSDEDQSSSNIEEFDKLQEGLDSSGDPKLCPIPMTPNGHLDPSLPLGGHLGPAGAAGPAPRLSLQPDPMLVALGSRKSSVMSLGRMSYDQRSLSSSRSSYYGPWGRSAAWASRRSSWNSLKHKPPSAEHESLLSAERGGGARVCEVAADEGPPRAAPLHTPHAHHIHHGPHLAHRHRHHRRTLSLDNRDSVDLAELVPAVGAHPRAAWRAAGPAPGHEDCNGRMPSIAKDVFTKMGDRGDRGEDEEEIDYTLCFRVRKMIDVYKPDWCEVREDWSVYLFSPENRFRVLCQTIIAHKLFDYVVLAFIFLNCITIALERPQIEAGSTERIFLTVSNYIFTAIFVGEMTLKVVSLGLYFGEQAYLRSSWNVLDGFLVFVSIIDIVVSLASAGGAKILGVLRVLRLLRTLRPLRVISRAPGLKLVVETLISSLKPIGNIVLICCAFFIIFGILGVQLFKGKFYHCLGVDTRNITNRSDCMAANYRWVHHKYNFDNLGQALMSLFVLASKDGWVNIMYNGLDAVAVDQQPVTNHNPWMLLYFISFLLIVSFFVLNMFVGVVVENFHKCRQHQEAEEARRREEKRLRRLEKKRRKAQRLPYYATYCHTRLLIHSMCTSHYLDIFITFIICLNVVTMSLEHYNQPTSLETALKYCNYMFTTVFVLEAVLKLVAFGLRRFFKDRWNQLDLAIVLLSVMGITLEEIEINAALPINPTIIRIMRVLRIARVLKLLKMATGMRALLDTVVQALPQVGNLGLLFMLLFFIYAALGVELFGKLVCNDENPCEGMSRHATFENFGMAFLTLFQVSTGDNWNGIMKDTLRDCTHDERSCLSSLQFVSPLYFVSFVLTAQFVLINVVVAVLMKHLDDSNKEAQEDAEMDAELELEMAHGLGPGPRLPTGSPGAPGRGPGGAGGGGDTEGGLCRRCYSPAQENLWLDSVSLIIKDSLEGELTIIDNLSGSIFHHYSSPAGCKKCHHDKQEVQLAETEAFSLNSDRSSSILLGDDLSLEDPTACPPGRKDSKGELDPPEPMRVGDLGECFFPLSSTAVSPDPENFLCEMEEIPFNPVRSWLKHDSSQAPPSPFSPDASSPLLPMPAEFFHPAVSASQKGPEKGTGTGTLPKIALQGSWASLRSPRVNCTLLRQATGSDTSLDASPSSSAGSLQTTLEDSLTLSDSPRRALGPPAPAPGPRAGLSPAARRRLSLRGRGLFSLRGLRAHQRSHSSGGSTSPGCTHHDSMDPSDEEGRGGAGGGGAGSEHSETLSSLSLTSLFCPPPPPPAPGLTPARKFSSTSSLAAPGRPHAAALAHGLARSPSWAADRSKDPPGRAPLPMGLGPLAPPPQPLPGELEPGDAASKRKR
T1 sequence (E9Q7P2 1-2199): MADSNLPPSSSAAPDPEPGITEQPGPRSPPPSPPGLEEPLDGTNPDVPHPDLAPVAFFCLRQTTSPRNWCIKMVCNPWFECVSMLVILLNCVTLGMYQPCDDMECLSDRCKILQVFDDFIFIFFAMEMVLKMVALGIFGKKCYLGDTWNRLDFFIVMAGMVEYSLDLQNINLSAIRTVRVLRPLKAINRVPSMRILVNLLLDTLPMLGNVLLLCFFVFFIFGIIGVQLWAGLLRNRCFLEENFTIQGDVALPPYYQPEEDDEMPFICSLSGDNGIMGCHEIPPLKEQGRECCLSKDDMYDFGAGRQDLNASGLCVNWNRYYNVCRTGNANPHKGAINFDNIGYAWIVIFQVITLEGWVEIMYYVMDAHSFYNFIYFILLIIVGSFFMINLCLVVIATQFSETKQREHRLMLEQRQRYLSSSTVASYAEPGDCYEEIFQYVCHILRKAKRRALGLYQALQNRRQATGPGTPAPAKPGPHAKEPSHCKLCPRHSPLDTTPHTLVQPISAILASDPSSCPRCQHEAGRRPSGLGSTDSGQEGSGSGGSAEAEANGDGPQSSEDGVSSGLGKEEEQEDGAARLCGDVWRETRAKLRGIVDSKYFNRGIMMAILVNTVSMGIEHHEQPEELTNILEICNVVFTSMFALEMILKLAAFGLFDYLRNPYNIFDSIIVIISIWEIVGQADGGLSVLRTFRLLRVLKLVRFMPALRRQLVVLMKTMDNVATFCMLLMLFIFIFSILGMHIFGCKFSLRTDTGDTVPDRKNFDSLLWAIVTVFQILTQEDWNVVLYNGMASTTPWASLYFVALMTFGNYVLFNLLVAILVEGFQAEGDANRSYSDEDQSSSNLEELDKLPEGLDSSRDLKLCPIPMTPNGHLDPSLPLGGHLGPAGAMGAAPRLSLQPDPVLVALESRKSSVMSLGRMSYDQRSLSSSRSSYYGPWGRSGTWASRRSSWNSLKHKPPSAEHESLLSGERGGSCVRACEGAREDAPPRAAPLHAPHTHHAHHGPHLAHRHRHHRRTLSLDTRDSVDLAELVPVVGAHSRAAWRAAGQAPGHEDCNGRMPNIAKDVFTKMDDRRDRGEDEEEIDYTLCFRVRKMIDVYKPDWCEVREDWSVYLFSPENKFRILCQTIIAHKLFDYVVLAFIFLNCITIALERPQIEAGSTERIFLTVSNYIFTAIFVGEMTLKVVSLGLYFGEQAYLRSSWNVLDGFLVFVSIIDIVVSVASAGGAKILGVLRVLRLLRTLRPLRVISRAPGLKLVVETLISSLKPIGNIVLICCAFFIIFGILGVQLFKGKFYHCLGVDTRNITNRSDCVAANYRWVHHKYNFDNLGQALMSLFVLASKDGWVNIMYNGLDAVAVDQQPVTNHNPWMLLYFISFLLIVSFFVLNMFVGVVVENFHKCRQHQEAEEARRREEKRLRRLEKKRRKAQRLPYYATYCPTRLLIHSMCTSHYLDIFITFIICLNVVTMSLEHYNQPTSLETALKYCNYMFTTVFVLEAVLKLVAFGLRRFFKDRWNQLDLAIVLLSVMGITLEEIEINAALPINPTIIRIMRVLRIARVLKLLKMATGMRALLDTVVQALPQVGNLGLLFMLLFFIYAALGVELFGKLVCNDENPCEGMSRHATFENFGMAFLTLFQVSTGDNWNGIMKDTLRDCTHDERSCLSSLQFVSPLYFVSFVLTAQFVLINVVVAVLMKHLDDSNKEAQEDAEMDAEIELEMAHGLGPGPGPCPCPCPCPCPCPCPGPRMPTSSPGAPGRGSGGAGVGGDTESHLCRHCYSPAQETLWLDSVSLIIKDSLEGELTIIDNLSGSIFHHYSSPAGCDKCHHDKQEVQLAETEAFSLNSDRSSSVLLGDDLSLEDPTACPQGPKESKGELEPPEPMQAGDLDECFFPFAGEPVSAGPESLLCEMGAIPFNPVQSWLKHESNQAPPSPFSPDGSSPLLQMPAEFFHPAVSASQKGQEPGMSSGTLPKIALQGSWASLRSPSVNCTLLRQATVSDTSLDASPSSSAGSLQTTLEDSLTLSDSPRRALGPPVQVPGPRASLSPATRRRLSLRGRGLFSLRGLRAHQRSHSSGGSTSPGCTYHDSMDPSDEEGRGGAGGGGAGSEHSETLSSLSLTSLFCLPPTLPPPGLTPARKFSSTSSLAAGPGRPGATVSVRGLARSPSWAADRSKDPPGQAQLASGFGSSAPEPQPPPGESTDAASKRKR

TAT-C3D: control peptide that does not block Cav3.3 channels, GRKKRRQRRRPQAVSSPARSGEPLHALSPRGTARSP (GRKKRRQRRRPQAVSSPARSGEPLHALSPRGTARSP; unkown; TAT-C3D (1)..(36))
Cav3.3 protein levels in the trigeminal ganglia (Cav3.3): strongly present
inhibition of Cav3.3 (Cav3.3 channels): does not inhibit Cav3.3

GRKKRRQRRRPQEESNKEAREDAELDAEIELEMAQG [TAT-C3P]
CNS penetration following intraperitoneal injection ([1]; FRICT-ION mice): penetrates the central nervous system
side effects [2]: no major side effects

GRKKRRQRRRPQEESNKEAREDAELDAEIELEMAQGHHHHHH [His-tagged TAT-C3P]
His-tag bands in TG and medullary tissues ([1]; male FRICT-ION mice, tissues harvested four hours post-injection): Bands were detected

CCC1(C)CC(=O)NC1=O (stereo not drawn) [ethosuximide]
outcome of clinical trial for neuropathic pain (T-type Ca2+ channels): halted due to adverse events
